Key:
cytokines and chemokines = test: MILLIPLEX Mouse Cytokine/Chemokine Magnetic Bead Panel; type: in vivo, transgenic APP mice; settings: 2.5 mg/kg or 1.25 mg/kg
Experimental: (§1) Transgenic mice harboring the Swedish, Dutch, and Iowa mutation for human amyloid beta-precursor protein were treated with intraperitoneal (IP) injections of 10 mg/kg, 5 mg/kg, 2.5 mg/kg, 1.25 mg/kg of LCB 03-0110 or 30 μL of dimethylsulfoxide (DMSO) every day for 1 week. LCB 03-0110 is a potent inhibitor of discoidin domain receptor 2 (DDR2) family tyrosine kinases. All animal experiments were conducted in full compliance with the recommendations of Georgetown University Animal Care and Use Committee (GUAUC). Fifteen mice were used for brain and blood extractions, and fifteen mice were used for drug treatments. Four transgenic APP mice were treated with DMSO, four transgenic APP mice were treated with 10 mg/kg of LCB 03-0110, four transgenic APP mice were treated with 5 mg/kg of LCB 03-0110, four transgenic APP mice were treated with 2.5 mg/kg of LCB 03-0110, and three transgenic APP mice were treated with 1.25 mg/kg of LCB 03-0110. Seven transgenic APP mice were treated with DMSO, and 7 transgenic APP mice were treated with 2.5 mg/kg of LCB.
MILLIPLEX®: Cytokines and chemokines were measured in serum and brain with the Mouse Cytokine/Chemokine Magnetic Bead Panel (Cat MCYTOMAG-70K, EMD Millipore). Human amyloid beta and total tau was measured in brain using the Human Amyloid Beta and Tau Panel (Cat HNABTMAG-68K, EMD Millipore). AKT/mTOR signaling cascade phosphoproteins were measured using the Akt/mTOR Phosphoprotein Magnetic Bread 11-Plex Kit (Cat 48-611MAG, EMD Millipore). Assays were performed according to the manufacturer's protocols.

[1] = system: APP/Aβ, Aβ42, p-tau (AT180); test: Western blot of soluble brain fractions of treated APP mice: amyloid and p-tau; type: in vivo, transgenic APP mice
Experimental: as §1
Brain tissues from transgenic APP mice treated with LCB 03-0110 at 10 mg/kg, 5 mg/kg, 2.5 mg/kg, and 1.25 mg/kg were homogenized in 1×STEN buffer, centrifuged at 10,000×g for 20 min at 4° C., and the supernatants containing the soluble fraction were collected. Soluble fractions were probed with mouse monoclonal anti-6E10 (1:1000), rabbit polyclonal anti-Ab42 (1:1000), mouse monoclonal anti-AT180 (1:1000), rabbit polyclonal anti-Beclin-1 (1:1000), rabbit polyclonal anti-Atg7 (1:1000), rabbit polyclonal anti-Atg12 (1:1000), rabbit polyclonal anti-LC3B (1:1000) and rabbit polyclonal anti-actin (1:1000).

human amyloid beta = test: MILLIPLEX Human Amyloid Beta and Tau Panel, soluble and insoluble brain fractions; type: in vivo, transgenic APP mice; settings: 2.5 mg/kg daily for 3 weeks
Experimental: as §1, with “Transgenic mice harboring the Swedish, Dutch, and Iowa mutation for human amyloid beta-precursor protein were treated with intraperitoneal (IP) injections of 10 mg/kg, 5 mg/kg, 2.5 mg/kg, 1.25 mg/kg of LCB 03-0110 or 30 μL of dimethylsulfoxide (DMSO) every day for 1 week.” left out
Animals were deeply anesthetized with a mixture of Xylazine and Ketamine (1:8). Whole blood (500 μl) was collected via cardiac puncture and centrifuged at 2000×g to precipitate blood cells. The serum was collected for mass spectrometric analysis. To wash out the remaining blood from vessels and reduce contamination, animals were perfused with 25 ml of 1X phosphate buffered saline (PBS) for 5 min and the brains were collected. A hemisphere was frozen and stored at −80° C. for mass spectrometry studies and the other hemisphere was immediately homogenized in 2.0 ml lysis buffer (containing protease and phosphatase inhibitors) and labeled as a soluble protein fraction.
After removing the soluble supernatant, the tissue pellet was washed with 1×STEN buffer. […]
(§2) MILLIPLEX®: Cytokines and chemokines were measured in serum and brain with the Mouse Cytokine/Chemokine Magnetic Bead Panel (Cat MCYTOMAG-70K, EMD Millipore). Human amyloid beta and total tau was measured in brain using the Human Amyloid Beta and Tau Panel (Cat HNABTMAG-68K, EMD Millipore). AKT/mTOR signaling cascade phosphoproteins were measured using the Akt/mTOR Phosphoprotein Magnetic Bread 11-Plex Kit (Cat 48-611MAG, EMD Millipore). […]

phosphorylated mTOR = test: MILLIPLEX Akt/mTOR phosphoprotein analysis; type: in vivo, transgenic APP mice; settings: mean fluorescent intensity; 1.25 or 2.5 mg/kg
Experimental: as §1, with “Seven transgenic APP mice were treated with DMSO, and 7 transgenic APP mice were treated with 2.5 mg/kg of LCB.” left out
as §2

[2] = system: beta-amyloid, synuclein and Tau; test: LCB-03-0110 tested in cell culture: levels of misfolded proteins; type: cell-based; settings: low doses (0.1-3 nM)
Experimental: shRNAs were designed to specifically knock down DDR1 and DDR2 receptors, and study their effects on clearance of misfolded protein accumulation in neurodegeneration. […] These shRNAs were then injected into animal models in vivo. […] A known DDR inhibitor, LCB-03-0110, was tested in cell culture. Low doses (0.1-3 nM) of LCB-03-0110 reduced the levels of beta-amyloid, synuclein and Tau in cell culture.

[3] = system: Beclin, Atg7, Atg12, LC3-I, LC3-II; test: Western blot of soluble brain fractions of treated APP mice: autophagy markers; type: in vivo, transgenic APP mice; settings: 1.25 or 2.5 mg/kg
Experimental: as §1
Brain tissues from transgenic APP mice treated with LCB 03-0110 at 10 mg/kg, 5 mg/kg, 2.5 mg/kg, and 1.25 mg/kg were homogenized in 1×STEN buffer, centrifuged at 10,000×g for 20 min at 4° C., and the supernatants containing the soluble fraction were collected. […]

## Oc1cccc(Nc2ccnc3cc(-c4cccc(CN5CCOCC5)c4)sc23)c1 [LCB 03-0110, 3-(2-(3-(morpholinomethyl)phenyl)thieno[3,2-b]pyridine-7-ylamino)phenol]
Cytokines and chemokines
  RANTES levels: does not alter
  VEGF-A levels: reduces VEGF-A to control levels
  brain inflammation: reduced
  granulocyte colony-stimulating factor (G-CSF): reductions
  granulocyte-macrophage colony-stimulating factor (GM-CSF): reductions
  macrophage colony-stimulating factor (M-CSF): reductions
  macrophage inflammatory factor 1 alpha (MIP-1α): reductions
  macrophage inflammatory factor 1 beta (MIP-1β): reductions
  macrophage inflammatory protein 1 (MIP-1): reductions
  macrophage inflammatory protein 2 (MIP-2): reductions
[1]; 1.25 or 2.5 mg/kg daily, after one week
  levels of p-tau (AT180) (Western blot): reduced
[1]; 1.25 or 2.5 mg/kg daily, after one week, actin loading control
  levels of APP/Aβ (Western blot): reduced
[1]; n=5, 3 mutant APP mice, about 2.5 mg/kg or less
  levels of amyloid, densitometry analysis: significantly reduced
[1]; soluble brain fraction, 1.25 or 2.5 mg/kg daily, one week
  beta-amyloid (Aβ42) levels (Western blot): effective in reducing
Human amyloid beta; brain
  soluble human Aβ40 levels: significantly reduced
  soluble human Aβ42 levels: significantly reduced
Human amyloid beta; brains of APP mice
  insoluble human Aβ42 levels: significantly reduced
Phosphorylated mTOR
  phosphorylated mTOR levels: without altering
[2]
  levels of Tau: reduced
  levels of beta-amyloid: reduced
  levels of synuclein: reduced
[3]
  autophagy and autophagosomes (Beclin, Atg7, Atg12, LC3-I, LC3-II Western blot): stimulates autophagy and clears autophagosomes
[3]; n=5
  level of LC3-II/LC3-I, densitometry analysis of LC3-II levels: significantly reduces
